The test deals with T1, NP (nucleoprotein of influenza A virus H1N1, full-length wild type) (Influenza A virus (A/Nanchang/11/1996(H1N1)), UniProt Q07FI1).
T1 construct: full-length (498 aa), N-terminal 6xHis-tag as printed, pET21b NdeI/XhoI, E. coli, Ni-NTA, RNase-treated lysate
Format: binding.

Molecules are shown by their SMILES.

T1 sequence (Q07FI1 whole entry): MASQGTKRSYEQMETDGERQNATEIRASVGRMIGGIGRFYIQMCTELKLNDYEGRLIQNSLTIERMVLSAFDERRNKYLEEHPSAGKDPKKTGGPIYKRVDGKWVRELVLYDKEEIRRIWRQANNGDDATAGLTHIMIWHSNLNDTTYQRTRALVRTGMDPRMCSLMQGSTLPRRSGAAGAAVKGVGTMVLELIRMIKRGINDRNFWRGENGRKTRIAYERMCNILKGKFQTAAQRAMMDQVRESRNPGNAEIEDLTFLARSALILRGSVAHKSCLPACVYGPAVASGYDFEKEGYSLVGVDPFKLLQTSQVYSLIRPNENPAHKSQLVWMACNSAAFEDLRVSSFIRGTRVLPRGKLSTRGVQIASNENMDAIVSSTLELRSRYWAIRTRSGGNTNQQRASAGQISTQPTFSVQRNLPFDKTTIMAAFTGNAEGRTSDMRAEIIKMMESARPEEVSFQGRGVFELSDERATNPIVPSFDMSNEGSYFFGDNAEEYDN

`COc1cc(/C=C/C(=O)CC(=O)/C=C/c2ccc(O)c(OC)c2)ccc1O` [H7, (E,E)-1,7-bis(4-hydroxy-3-methoxyphenyl)-1,6-heptadiene-3,5-dione] came in with a Kd of 1220 nM.

A word on the Kd: it is the free concentration of one partner at which half of the binding sites on the other are occupied at equilibrium, for simple one-to-one binding. Low values mean tighter binding, high ones weaker binding.

The record behind these values is PMC4768256, “Using mutagenesis to explore conserved residues in the RNA-binding groove of influenza A virus nucleoprotein for antiviral drug development” (Scientific Reports, 2016).
